Experimental data published in patent publication US7662802B2, “Halide-free glucosamine-acidic drug complexes” (Gluconova, LLC, priority 2004, dated 2010).

Test: stability of halide-free glucosamine at ambient temperature and/or the atmosphere
Assay type: physicochemical

hygroscopicity: quite hygroscopic
stability on storage (subjected to ambient temperature and/or to the atmosphere): will decompose over a period of time
Compound: N[C@H]1C(O)O[C@H](CO)[C@@H](O)[C@@H]1O (some centres unmarked) [halide-free glucosamine, glucosamine]
